“Also recorded” adds a separate entry of the source. Where two headings read alike, the source gives them in different places.
How the values were obtained:
neointimal formation = conditions: controlled local delivery; rat carotid balloon injury model; cited from earlier work
Swiss 3T3 cells = conditions: read-out: 50% inhibitory concentration, PDGF receptor kinase and PDGF dependent DNA synthesis; cited from earlier work
[1] = tested on: porcine aorta endothelial cells (EC); conditions: read-out: 50% inhibitory concentration, PDGF receptor kinase and PDGF dependent DNA synthesis; cited from earlier work
[2] = tested on: epidermal growth factor receptor; conditions: cited from earlier work
[3] = tested on: DNA synthesis stimulated by insulin, by epidermal growth factor, or by a combination of both; conditions: cited from earlier work
[4] = tested on: fibroblast growth factor-dependent DNA synthesis; conditions: relative to PDGF dependent DNA synthesis; cited from earlier work
human PDGF α-receptor = conditions: cited from earlier work
human PDGF β-receptor = conditions: cited from earlier work
[5] = tested on: stem cell factor receptor (c-Kit); conditions: cited from earlier work
[6] = tested on: vascular endothelial growth factor receptor KDR; conditions: cited from earlier work
[7] = tested on: porcine aortic endothelial cells; conditions: cited from earlier work
[8] = tested on: sis-transfected NIH 3T3 cells; conditions: cited from earlier work
[9] = tested on: src-transformed NIH 3T3 cells; conditions: cited from earlier work
p60c-src(F527) = conditions: cited from earlier work
PDGF β-receptor = target: T1, PDGF β-receptor (Sus scrofa, UniProt F1RL75); experiment: PDGF induced PDGFR autophosphorylation in intact SMC cells; assay type: cell-based; conditions: porcine arterial SMC
T1 construct: PDGF-BB stimulated; immunoprecipitated with PDGF beta-receptor specific antiserum R3
T1 sequence (F1RL75 109-1181): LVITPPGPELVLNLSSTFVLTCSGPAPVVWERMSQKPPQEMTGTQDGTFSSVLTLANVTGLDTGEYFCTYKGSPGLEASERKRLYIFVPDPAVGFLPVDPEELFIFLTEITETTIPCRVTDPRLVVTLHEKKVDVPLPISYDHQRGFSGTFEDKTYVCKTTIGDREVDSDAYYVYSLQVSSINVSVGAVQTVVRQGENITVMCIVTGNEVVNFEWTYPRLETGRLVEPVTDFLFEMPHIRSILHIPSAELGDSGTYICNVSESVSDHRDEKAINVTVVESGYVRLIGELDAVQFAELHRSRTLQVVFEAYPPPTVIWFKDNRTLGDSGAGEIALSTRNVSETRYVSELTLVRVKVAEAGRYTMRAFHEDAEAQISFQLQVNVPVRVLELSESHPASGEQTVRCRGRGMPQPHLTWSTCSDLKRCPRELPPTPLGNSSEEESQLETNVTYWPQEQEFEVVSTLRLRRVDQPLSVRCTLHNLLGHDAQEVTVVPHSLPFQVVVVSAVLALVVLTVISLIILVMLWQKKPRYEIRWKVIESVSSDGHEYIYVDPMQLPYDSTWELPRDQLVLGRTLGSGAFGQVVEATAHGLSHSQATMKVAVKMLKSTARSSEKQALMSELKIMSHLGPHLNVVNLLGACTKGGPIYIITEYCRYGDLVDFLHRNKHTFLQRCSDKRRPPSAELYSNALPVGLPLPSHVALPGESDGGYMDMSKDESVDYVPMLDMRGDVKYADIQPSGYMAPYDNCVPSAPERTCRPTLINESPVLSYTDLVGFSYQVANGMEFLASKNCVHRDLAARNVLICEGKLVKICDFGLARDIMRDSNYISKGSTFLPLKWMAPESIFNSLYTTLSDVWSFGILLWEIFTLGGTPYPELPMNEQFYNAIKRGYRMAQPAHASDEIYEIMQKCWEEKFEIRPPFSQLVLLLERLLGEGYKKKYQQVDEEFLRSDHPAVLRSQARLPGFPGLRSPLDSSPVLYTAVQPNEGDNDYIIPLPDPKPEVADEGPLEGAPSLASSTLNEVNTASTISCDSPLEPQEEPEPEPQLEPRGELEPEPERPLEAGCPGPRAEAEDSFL
Method: Effect of tyrphostins on PDGF induced PDGFR autophosphorylation in intact SMC cells: Subconfluent porcine arterial smooth muscle cells, cultivated in Dulbecco's modified Eagle's medium (DMEM) supplemented with 15% fetal calf serum (FCS), were synchronized for 20 hours in a medium containing 2% FCS. […] After stimulation, the cells were solubilized in Nonidet P-40 (1%) containing lysis buffer.
The analysis of PDGF p-receptor phosphorylation was performed as follows. Cell lysates were subjected to immunoprecipitation using the PDGF β-receptor specific antiserum R3 [5]. The percipitates were subjected to polyacrylamide (7.5%) gel electrophoresis in presence of sodium deducyl sulfate (SDS-PAGE) and were thereafter blotted onto a nitrocellulose membrane (Hybond C-EXTRA, Amersham). Phosphorylated proteins were detected by immunoblotting using the horseradish-peroxidase conjugated phosphotyrosine antibody RC20H (Transduction Laboratories), followed by chemoluminescence-based detection (ECL, Amersham) and autoradiography.
Detection of receptor proteins was performed as follows. Cell lysates were subjected to immunoprecipitation using the PDGF β-receptor specific antiserum R3 [5], as described above, and the percipitates washed three times and thereafter subjected to SDS-PAGE (7.5%) and blotting onto a nitrocellulose membrane (Hybond C-EXTRA, Amersham). Receptor proteins were detected by immunoblotting using the horseradish-peroxidase conjugated donkey anti-rabbit antibody (Amersham), followed by chemoluminescence-based detection (ECL, Amersham) and autoradiography.

[10] = tested on: porcine aortic smooth muscle cells (SMC); experiment: Inhibition of cell proliferation and recovery, porcine SMC; assay type: cell-based; conditions: for inhibition at 10 µM: Sus scrofa
Method: Smooth muscle cells (SMC) were obtained under aseptic conditions from porcine abdominal aortas, and human internal mammary arteries (IMA). Specimens from the operating room were transferred on ice to the tissue culture room. Each artery was cut open and the endothelial surface mechanically scraped. […] The tissue fragments were then placed in an incubator at 37° C. under 9% CO2 atmosphere until SMC outgrowth was detected (typically within 3-7 days). […] For experiments testing the effect of tyrphostins on growth inhibition and recovery (see below), SMC from passages 1-3 were replated in 15 mm wells pretreated with 3 μg/cm^2 fibronectin (Biological Industries, Kibbutz Beit Haemek, Israel) at 15,000 cells/well.
(§1) Inhibition of cell proliferation and recovery: Monolayer cell growth inhibition and recovery experiments were repeated 3 or 4 times. Each experiment was performed in triplicate. […] Cultures were treated with a tyrphostin (10 μM) dissolved in 0.1% DMSO on days 1 and 3. On day 6, cultures were washed and the cells allowed to recover. Typically cells were counted on days 3 and 5 for inhibition, and on days 7, 10 and 15 for recovery, other schedules were also employed as reported below.

[11] = tested on: porcine endothelial cells (EC); experiment: Inhibition of cell proliferation and recovery, porcine EC; assay type: cell-based; conditions: for inhibition at 10 µM: Sus scrofa, Endothelial cell
Source text: Endothelial cells (EC) were isolated from porcine carotid arteries. Using aseptic procedure, both common carotid arteries were isolated, and the distal end of each artery was cannulated through an arteriotomy and ligated. The arteries were then perfused with phosphate buffered saline (PBS) and the proximal end ligated isolating a 5-7 cm long blood-free portion of the artery. The isolated portion of each artery was filled with PBS containing calcium and magnesium and 0.1% collagenase (Boehringer Manneheim, Germany). The segments were excised and incubated for 10 min at 37° C. in sterile bottles containing PBS. […] Cells were seeded on fibronectin-coated dishes at a seeding density of 15,000 cells/well and incubated at 37° C. in 9% CO2. ECGS (25 μg/ml) was added every other day until confluence was observed, typically within 6-8 days.
as §1

[12] = tested on: human internal mammary artery smooth muscle cells (IMA SMC); experiment: Inhibition of cell proliferation and recovery, human IMA SMC; assay type: cell-based
Source text: Smooth muscle cells (SMC) were obtained under aseptic conditions from porcine abdominal aortas, and human internal mammary arteries (IMA). Specimens from the operating room were transferred on ice to the tissue culture room. Each artery was cut open and the endothelial surface mechanically scraped. The vessels were then cut into 2 mm^2 fragments which were placed in culture dishes with Dulbecco's modified Eagle's medium (DMEM) supplemented with 15% (v/v) fetal calf serum (FCS), 100 u/ml penicillin, 100 μg/ml streptomycin, and […] L-glutamine. The tissue fragments were then placed in an incubator at 37° C. under 9% CO2 atmosphere until SMC outgrowth was detected (typically within 3-7 days). […] For experiments testing the effect of tyrphostins on growth inhibition and recovery (see below), SMC from passages 1-3 were replated in 15 mm wells pretreated with 3 μg/cm^2 fibronectin (Biological Industries, Kibbutz Beit Haemek, Israel) at 15,000 cells/well.
Inhibition of cell proliferation and recovery: Monolayer cell growth inhibition and recovery experiments were repeated 3 or 4 times. Each experiment was performed in triplicate. Approximately 15,000 cells (SMC or EC) in 1 ml of culture medium supplemented with 15% FCS were seeded on day 0 in 15 mm-wells precoated with fibronectin. Cultures were treated with a tyrphostin (10 μM) dissolved in 0.1% DMSO on days 1 and 3. On day 6, cultures were washed and the cells allowed to recover. Typically cells were counted on days 3 and 5 for inhibition, and on days 7, 10 and 15 for recovery, other schedules were also employed as reported below. The medium supplemented with serum (M-199 with ECGS for EC, and DMEM for SMC) was changed every other day throughout the experiment.
FIG. 9 presents the maximal inhibitory and recovery effects on human IMA SMC growth inflicted by 10 or 25 μM of AG1851 and AG1295. Cells were grown in the presence of the specified tyrphostins and were counted after seven days in culture. On day 7 the cultures were washed and the cells allowed to recover. Seven days later they were counted for recovery. The bar graph show the maximal inhibition and the recovery in each experiment and for controls.

## CC(C)(C)c1cc(C=C(C#N)C#N)cc(C(C)(C)C)c1O [AG17]
Neointimal formation
  inhibition of neointimal formation: effectively inhibits neointimal formation

## COc1cc2ncc(-c3ccccc3)nc2cc1OC [AG1296]
Swiss 3T3 cells
  IC50: < 5000 nM
[1]
  IC50: < 1000 nM
[2]
  effect on epidermal growth factor receptor autophosphorylation: no effect
[3]
  effect on DNA synthesis stimulated by insulin, by epidermal growth factor, or by a combination of both: weak effects
[4]
  blocking effect on fibroblast growth factor-dependent DNA synthesis: over an order of magnitude weaker blocking effect
Human PDGF α-receptor
  inhibition of signalling of human PDGF α-receptor: potently inhibits
Human PDGF β-receptor
  inhibition of signalling of human PDGF β-receptor: potently inhibits
[5]
  inhibition of signalling of stem cell factor receptor (c-Kit): potently inhibits
[6]
  effect on autophosphorylation of KDR: no effect
[7]
  effect on DNA synthesis induced by vascular endothelial growth factor: no effect
[8]
  effect on transformed phenotype of sis-transfected NIH 3T3 cells: reverses the transformed phenotype
[9]
  effect on src-transformed NIH 3T3 cells: no effect
p60c-src(F527)
  effect on activity of the kinase p60c-src(F527) immunoprecipitated from src-transformed NIH 3T3 cells: no effect

## Cc1cc2ncc(-c3ccccc3)nc2cc1C [AG1295, reference compound]
PDGF β-receptor
  level of PDGF β-receptor protein present in the cells: without affecting the level
PDGF β-receptor; tyrphostin 10 μM, 60 min preincubation, PDGF-BB 100 ng/ml
  inhibition of PDGF-BB induced PDGF β-receptor tyrosine-phosphorylation: completely inhibited
[10]; 10 μM, FIGS. 3-7
  inhibitory effect on porcine SMC growth (in words): very potent growth inhibition effect; also recorded: highly effective in blocking proliferation; also recorded: very effective proliferation inhibitors
[10]; 10 μM, porcine SMC
  toxicity on SMC: low lasting toxicity
[10]; 72 h, read-out: mean reduction in SMC count compared to DMSO treated control cells, 10 μM, by day 3
  inhibition at 10 µM: 46%
[10]; 120 h, read-out: reduction in SMC count / inhibition of SMC growth over control, 10 μM, by day 5 (day given for AG1295 and AG1992)
  inhibition at 10 µM: 78%
[10]; read-out: maximal inhibitory effect on porcine SMC proliferation, FIG. 6 experiment, 10 μM
  inhibition at 10 µM: 65%
[10]; read-out: maximal inhibitory effect on porcine SMC proliferation, FIG. 7 experiment, 10 μM
  inhibition at 10 µM: 81%
[10]; read-out: mean reduction in SMC count compared to control cells (maximal inhibition in SMC growth), Table 2, 10 μM
  inhibition at 10 µM: 78%
[10]; porcine SMC, cultures washed, cells allowed to recover
  reversibility of the inhibitory effect / recovery of SMC growth after washout: completely reversible
[11]
  reversibility of the inhibitory effect on EC: completely reversible
[11]; 72 h, by day 3, read-out: mean reduction of EC growth compared to controls
  inhibition at 10 µM: ~10%
[11]; 120 h, by day 5, read-out: reduction of EC growth compared to controls
  inhibition at 10 µM: 13.5%
[11]; FIG. 8 experiment, 10 μM, read-out: maximal inhibitory effect on porcine EC proliferation
  inhibition at 10 µM: 22%
[12]; 25 μM
  reversibility of the effect on IMA SMC upon removal of the tyrphostin: completely reversible
[12]; Homo sapiens, 120 h, read-out: mean reduction / inhibition of IMA SMC proliferation compared to untreated or DMSO-treated cells
  inhibition at 25 µM: 48%
Swiss 3T3 cells
  IC50: < 5000 nM
[1]
  IC50: < 1000 nM
[2]
  effect on epidermal growth factor receptor autophosphorylation: no effect
[3]
  effect on DNA synthesis stimulated by insulin, by epidermal growth factor, or by a combination of both: weak effects
[4]
  blocking effect on fibroblast growth factor-dependent DNA synthesis: over an order of magnitude weaker blocking effect

Reference: US5932580A, “PDGF receptor kinase inhibitory compounds their preparation and compositions” (priority 1997, dated 1999)
